From ChEMBL document CHEMBL4680271, “COVID-19: Drug Targets and Potential Treatments” (J Med Chem, 2020)

Test: Inhibition of CTSL/CTSB in 293T/17 cells harboring ACE2 assessed as reduction in SARS-CoV-2 S pseudovirions entry into host cell incubated for 2 days by luciferase method
Assay type: cell-based
Conditions: Severe acute respiratory syndrome-related coronavirus, HEK293T/17, 48 h

SMILES: CC(C)(C)N1CCN(C(=O)N[C@@H](Cc2ccccc2)C(=O)N[C@H](/C=C/S(=O)(=O)c2ccccc2)CCc2ccccc2)CC1
- IC50: 0.08 nM

SMILES: CN1CCN(C(=O)N[C@@H](Cc2ccccc2)C(=O)N[C@H](/C=C/S(=O)(=O)c2ccccc2)CCc2ccccc2)CC1 [K-777]
- IC50: 0.32 nM
